According to paper PMC10537087, “Evaluating Known Zika Virus NS2B-NS3 Protease Inhibitor Scaffolds via In Silico Screening and Biochemical Assays” (Pharmaceuticals, 2023):
Where two headings read alike, the source gives them in different places.

Columns and labels:
[1] = Solubility in cruzain assay buffer; type: physicochemical; conditions: sodium acetate 0.1 M pH 5.5, β-mercaptoethanol 10 mM
[2] = test system: Vero (ATCC CCL-81) cell line; experiment: Cytotoxicity MTT assay (CC50); conditions: Vero cells
Experimental: (§1) The Vero (ATCC® CCL-81™) cell line was used for the cytotoxicity assays and antiviral activity evaluation against ZIKV. Cells were cultured in Eagle’s minimum essential media (MEM) (Cultilab, Campinas, Brazil). The media was supplemented with 5% fetal bovine serum (FBS) (Cultilab, Brazil), in addition to 100 IU/mL penicillin (Cellofarm, Rio De Janeiro, Brazil), 100 μg/mL streptomycin (Merck, Darmstadt, Germany), and 0.25 μg/mL amphotericin B (Cultilab, Brazil).
(§2) Cells were seeded in 96-well microplates (4.0 × 10^4 cells per well) and incubated at 37 °C and 5% CO2 for 24 h. Then, 200 µL of MEM with 1% FBS containing a serial dilution of the compounds (100 to 12.5 µM) was added. As vehicle control, a serial dilution of DMSO was used. After 72 h of incubation under the same conditions, 100 μL of 3-(4,5-dimethylthiazol-2-yl)-2,5-diphenyltetrazolium bromide (MTT; ThermoFischer Scientific, Waltham, MA, USA) [76] diluted in MEM (0.5 mg/mL) was added to each well and incubated for 3 h. The media was removed, and 100 μL of DMSO was added to each well to solubilize formazan crystals and shaken for 20 min. The absorbance was read at 570 nm using a spectrophotometer (VersaMax, Molecular Devices, San Jose, CA, USA). The percentages of inhibition of cell viability were calculated as the ratio between the absorbance of the compound-treated cells and cells with only the vehicle. […] Linear regression (LR) was used for the analysis, considering results with r^2 > 0.9. All conditions were tested in triplicate and one independent assay (n = 3 data points).

[3] = Cytotoxicity MTT assay (CC50); conditions: African green monkey, Vero (ATCC CCL-81) cells
Experimental: as §1, §2

ZIKV NS2B-NS3pro [4] = biological target: T1, ZIKV NS2B-NS3pro (Zika virus, UniProt A0A024B7W1, C1582S/C1645S/R1467A/R1531G); experiment: ZIKV NS2B-NS3pro inhibitory assay with fluorogenic substrate Bz-Nle-Lys-Lys-Arg-AMC; type: biochemical; conditions: for % ZIKV NS2B/NS3pro Inhibition [Enzyme] = 0.2 nM / % ZIKV NS2B/NS3pro Inhibition [Enzyme] = 2 nM: compound 25 µM (close to IC50), CHAPS 1 mM; for % ZIKV NS2B/NS3pro Inhibition (100 µM) 0.001% Triton / % ZIKV NS2B/NS3pro Inhibition (100 µM) 0.01% Triton / % ZIKV NS2B/NS3pro Inhibition (100 µM) BSA / % ZIKV NS2B/NS3pro Inhibition (100 µM) With Preincubation / % ZIKV NS2B/NS3pro Inhibition (100 µM) Without Preincubation: compound 100 µM; for % ZIKV NS2B/NS3pro Inhibition (100 µM) 0.001% Triton: 0.001% Triton X-100, no Tween-20; for % ZIKV NS2B/NS3pro Inhibition (100 µM) 0.001% Triton / % ZIKV NS2B/NS3pro Inhibition (100 µM) 0.01% Triton: 10 min preincubation; for % ZIKV NS2B/NS3pro Inhibition (100 µM) 0.01% Triton: 0.01% Triton X-100, no Tween-20; for % ZIKV NS2B/NS3pro Inhibition (100 µM) BSA: 10 min pre-incubation with BSA 1 mg/mL before enzyme; for % ZIKV NS2B/NS3pro Inhibition (100 µM) With Preincubation: 10 min preincubation with enzyme; for % ZIKV NS2B/NS3pro Inhibition (100 µM) Without Preincubation: no preincubation; for Hill Slope Replica 1 / Hill Slope Replica 2: from dose-response curve
ZIKV NS2B-NS3pro [5] = biological target: T1, ZIKV NS2B-NS3pro; conditions: cited from earlier work; for cause of inhibition after resynthesis: parallel study, ref [54]; for mode of inhibition: ref [33]
[6] = test system: Vero (ATCC CCL-81) cell line; parameters: method as in Serafim et al. [64]; conditions: comparison control; ref Serafim et al. [64]; cited from earlier work
ZIKV (PE243) = test system: ZIKV (PE243); parameters: method as in Serafim et al. [64]; conditions: comparison control, ref Serafim et al. [64]; cited from earlier work

Row | Structure (SMILES) | solubility in the cruzain assay buffer [1] | Cell viability as percentage of cell control (mean absorbance / CELL) ([2]; compound 12.5 µM) | Cell viability as percentage of cell control (mean absorbance / CELL) ([2]; compound 25 µM) | Cell viability as percentage of cell control (mean absorbance / CELL) ([2]; compound 50 µM) | Cell viability as percentage of cell control (mean absorbance / CELL) ([2]; compound 100 µM) | CC50 at 72 h [3] [µM] | % ZIKV NS2B/NS3pro Inhibition [Enzyme] = 0.2 nM (ZIKV NS2B-NS3pro [4]; enzyme 0.2 nM) [%] | % ZIKV NS2B/NS3pro Inhibition [Enzyme] = 2 nM (ZIKV NS2B-NS3pro [4]) [%] | % ZIKV NS2B/NS3pro Inhibition (100 µM) 0.001% Triton (ZIKV NS2B-NS3pro [4]) [%] | % ZIKV NS2B/NS3pro Inhibition (100 µM) 0.01% Triton (ZIKV NS2B-NS3pro [4]) [%] | % ZIKV NS2B/NS3pro Inhibition (100 µM) BSA (ZIKV NS2B-NS3pro [4]) [%] | % ZIKV NS2B/NS3pro Inhibition (100 µM) With Preincubation (ZIKV NS2B-NS3pro [4]; 0.005% Tween-20, enzyme 0.2 nM) [%] | % ZIKV NS2B/NS3pro Inhibition (100 µM) Without Preincubation (ZIKV NS2B-NS3pro [4]; 0.005% Tween-20) [%] | Hill Slope Replica 1 (ZIKV NS2B-NS3pro [4]) | Hill Slope Replica 2 (ZIKV NS2B-NS3pro [4]) | cause of inhibition after resynthesis (ZIKV NS2B-NS3pro [5]) | mode of inhibition (ZIKV NS2B-NS3pro [5]) | also measured
1 | O=C(Nc1nc2ccccc2[nH]1)c1ccccc1NS(=O)(=O)c1ccc(Cl)cc1 [Compound 6] | insoluble | 63.7676 | 61.7079 | 41.6329 | 48.6633 | 38.4 ± 2.18 | 99 ± 0.4 | 66 ± 21 | 89 ± 6 | 7 ± 9 | 55 ± 20 | 100 ± 0 | 99 ± 2 | 6.697 | 4.362 |  |  | 
2 | Cc1cc(C(=O)c2ccccc2NS(=O)(=O)c2ccc(F)cc2)nn1-c1ccccc1 [Compound 13] | insoluble | 41.6898 | 25.5093 | 21.6435 | 12.8704 | < 12.5 | 43 ± 0.1 | 26 ± 10 | 100 ± 0 | 45 ± 9 | 57 ± 15 | 95 ± 2 | 100 ± 1 | 5.057 | 5.334 |  |  | IC50 (ZIKV NS2B-NS3pro [4]; 0.005% Tween-20, enzyme 0.2 nM, substrate 44 µM, read-out: ZIKV NS2B/NS3pro IC50): 28 ± 1 µM; IC50 (ZIKV NS2B-NS3pro [4]; one value per independent assay (two curves per compound), read-out: IC50 of the individual curves for NS2B-NS3pro inhibitors (Figure 3)): 29 µM
3 | COc1ccc(S(=O)(=O)Nc2ccccc2C(=O)Nc2nc3ccccc3s2)cc1 [LEE-2] |  |  |  |  |  |  |  |  |  |  |  |  |  |  |  | due to colloidal aggregation | competitive inhibitors | 
4 | COc1ccc(Cl)c2sc(NC(=O)c3ccccc3NS(=O)(=O)c3ccc(C)cc3)nc12 [LEE-3] |  |  |  |  |  |  |  |  |  |  |  |  |  |  |  | due to colloidal aggregation | competitive inhibitors | 
5 | NC(=O)c1ncn([C@@H]2O[C@H](CO)[C@@H](O)[C@H]2O)n1 [Ribavirin] |  |  |  |  |  |  |  |  |  |  |  |  |  |  |  |  |  | CC50 [6]: > 100 µM; EC50 (ZIKV (PE243)): 4.1 ± 0.35 µM
